Experimental data reported in US9090628B2, “Benzoxazepin compounds selective for PI3K P110 delta and methods of use” (GENENTECH, INC., priority 2011, dated 2015).

Columns and labels:
[1] = target: p110 alpha (Homo sapiens (Human), UniProt P42336); experiment: PI3K isoform inhibition assay, p110 alpha (for alpha/delta selectivity); conditions: ratio of biochemical IC50 values
Outline: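 Fluorescence polarization displacement of a fluorescent PIP3 probe from GRP-1 detector by PI3K-formed PIP3; p110α/p85α at 40 ng/mL with 10 μM PIP2 substrate.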

[2] = target: p110 delta (Homo sapiens (Human), UniProt O00329); experiment: PI3K isoform inhibition assay, p110 delta (fluorescence polarization displacement); format: biochemical
Sequence of p110 delta (O00329 whole entry, canonical isoform): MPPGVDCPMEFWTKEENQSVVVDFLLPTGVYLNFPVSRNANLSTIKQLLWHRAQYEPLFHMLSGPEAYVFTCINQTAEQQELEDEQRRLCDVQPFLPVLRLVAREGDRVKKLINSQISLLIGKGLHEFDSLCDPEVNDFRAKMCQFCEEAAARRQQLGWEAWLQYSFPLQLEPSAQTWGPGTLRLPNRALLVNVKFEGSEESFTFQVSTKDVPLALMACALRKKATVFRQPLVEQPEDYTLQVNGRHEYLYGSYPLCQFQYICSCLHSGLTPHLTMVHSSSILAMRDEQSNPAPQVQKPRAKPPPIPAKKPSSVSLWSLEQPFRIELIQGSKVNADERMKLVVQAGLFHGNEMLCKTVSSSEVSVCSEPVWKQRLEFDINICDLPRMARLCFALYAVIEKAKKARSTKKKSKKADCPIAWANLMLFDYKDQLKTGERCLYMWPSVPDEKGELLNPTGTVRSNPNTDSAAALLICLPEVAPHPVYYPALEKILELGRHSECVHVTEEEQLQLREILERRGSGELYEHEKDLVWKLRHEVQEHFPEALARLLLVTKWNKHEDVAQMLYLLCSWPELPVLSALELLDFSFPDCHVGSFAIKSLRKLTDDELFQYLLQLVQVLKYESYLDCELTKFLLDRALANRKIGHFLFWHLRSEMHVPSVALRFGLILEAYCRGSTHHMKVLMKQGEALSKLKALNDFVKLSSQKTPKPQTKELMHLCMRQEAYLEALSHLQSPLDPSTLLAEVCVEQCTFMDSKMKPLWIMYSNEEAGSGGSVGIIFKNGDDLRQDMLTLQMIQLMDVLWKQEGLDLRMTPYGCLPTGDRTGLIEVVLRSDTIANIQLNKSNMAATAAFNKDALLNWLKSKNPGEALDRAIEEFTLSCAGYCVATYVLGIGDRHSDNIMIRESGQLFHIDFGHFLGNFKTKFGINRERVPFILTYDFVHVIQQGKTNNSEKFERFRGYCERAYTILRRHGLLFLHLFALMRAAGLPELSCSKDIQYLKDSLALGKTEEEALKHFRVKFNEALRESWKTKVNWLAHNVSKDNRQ
Sequence of p110 delta (P27986 whole entry partner, canonical isoform): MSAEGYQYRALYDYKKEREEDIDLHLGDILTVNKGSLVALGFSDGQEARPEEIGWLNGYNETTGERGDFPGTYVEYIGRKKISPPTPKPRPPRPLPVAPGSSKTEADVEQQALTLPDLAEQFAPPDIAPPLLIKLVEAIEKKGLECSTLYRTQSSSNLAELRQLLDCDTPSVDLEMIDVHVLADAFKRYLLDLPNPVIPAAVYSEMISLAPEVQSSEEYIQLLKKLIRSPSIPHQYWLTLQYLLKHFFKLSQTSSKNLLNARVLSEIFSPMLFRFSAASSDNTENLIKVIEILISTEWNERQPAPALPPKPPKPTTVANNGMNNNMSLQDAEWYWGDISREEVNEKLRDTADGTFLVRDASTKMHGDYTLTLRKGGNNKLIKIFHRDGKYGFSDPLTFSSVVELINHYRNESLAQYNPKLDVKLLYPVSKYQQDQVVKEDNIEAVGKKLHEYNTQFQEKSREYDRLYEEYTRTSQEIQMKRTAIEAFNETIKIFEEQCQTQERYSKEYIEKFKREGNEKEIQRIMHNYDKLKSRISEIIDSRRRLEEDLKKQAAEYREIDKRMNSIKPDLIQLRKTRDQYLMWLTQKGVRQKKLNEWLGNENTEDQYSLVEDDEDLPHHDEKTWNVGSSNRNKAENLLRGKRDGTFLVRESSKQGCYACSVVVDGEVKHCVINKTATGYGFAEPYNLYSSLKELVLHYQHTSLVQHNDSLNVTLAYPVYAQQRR

Sequence of p110 alpha (P42336 whole entry, canonical isoform): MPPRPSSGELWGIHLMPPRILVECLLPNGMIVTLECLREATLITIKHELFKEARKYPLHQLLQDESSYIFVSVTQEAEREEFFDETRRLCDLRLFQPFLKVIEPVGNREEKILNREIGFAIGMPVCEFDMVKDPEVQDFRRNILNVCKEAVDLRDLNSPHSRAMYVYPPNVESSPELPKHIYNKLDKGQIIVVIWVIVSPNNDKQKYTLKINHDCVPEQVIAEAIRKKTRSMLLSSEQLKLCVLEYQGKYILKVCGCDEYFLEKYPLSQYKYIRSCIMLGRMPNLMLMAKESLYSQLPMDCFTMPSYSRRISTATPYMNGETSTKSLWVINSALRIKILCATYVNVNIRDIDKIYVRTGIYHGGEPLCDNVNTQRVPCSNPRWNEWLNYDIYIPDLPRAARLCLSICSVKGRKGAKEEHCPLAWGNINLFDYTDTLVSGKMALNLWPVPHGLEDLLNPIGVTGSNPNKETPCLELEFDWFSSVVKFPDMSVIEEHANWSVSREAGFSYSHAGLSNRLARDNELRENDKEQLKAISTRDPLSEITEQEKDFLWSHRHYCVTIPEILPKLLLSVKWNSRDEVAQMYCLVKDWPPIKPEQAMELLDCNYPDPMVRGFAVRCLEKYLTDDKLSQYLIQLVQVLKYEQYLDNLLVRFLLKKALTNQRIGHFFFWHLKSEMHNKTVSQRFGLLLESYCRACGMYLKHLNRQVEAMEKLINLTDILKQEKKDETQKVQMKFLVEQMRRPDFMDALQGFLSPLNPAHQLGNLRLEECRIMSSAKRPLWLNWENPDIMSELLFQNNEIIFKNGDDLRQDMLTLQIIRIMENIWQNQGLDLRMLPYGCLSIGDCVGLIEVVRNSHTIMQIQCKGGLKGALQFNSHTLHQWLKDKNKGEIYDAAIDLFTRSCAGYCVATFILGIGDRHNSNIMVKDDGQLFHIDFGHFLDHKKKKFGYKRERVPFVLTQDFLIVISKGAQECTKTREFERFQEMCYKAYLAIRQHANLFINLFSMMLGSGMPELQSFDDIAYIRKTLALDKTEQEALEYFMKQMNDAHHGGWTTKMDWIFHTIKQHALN
Sequence of p110 alpha (P27986 whole entry partner, canonical isoform): as the sequence (P27986 whole entry partner, canonical isoform) above

| Structure (SMILES) | IC50 p110 alpha/IC50 p110 delta [1] | IC50 [2] [nM] |
| --- | --- | --- |
| CC(C)n1ncnc1-c1cn2c(n1)-c1cc([S+]([O-])C3CCN(C(C)(C)C)CC3)ccc1OCC2 (stereo not drawn) [Example 270, 10-(1-tert-butylpiperidin-4-ylsulfinyl)-2-(1-isopropyl-1H-1,2,4-triazol-5-yl)-5,6-dihydrobenzo[f]imidazo[1,2-d][1,4]oxazepine] | 184 | 0.811 |
| Cc1nc(-c2cn3c(n2)-c2ccc(N4CCC4C4CCN(C(C)C)CC4)cc2OCC3)n(C(C)C)n1 (stereo not drawn) [Example 293, 2-(2-isopropyl-5-methyl-1,2,4-triazol-3-yl)-9-[2-(1-isopropyl-4-piperidyl)azetidin-1-yl]-5,6-dihydroimidazo[1,2-d][1,4]benzoxazepine] | 10.3 | 1.47 |
| Cc1nc(-c2cn3c(n2)-c2cc(-c4ccnn4[C@@H]4CCCN(C(C)C)C4)c(F)cc2OCC3)n(C(C)C)n1 [Example 315, (R)-9-fluoro-2-(1-isopropyl-3-methyl-1H-1,2,4-triazol-5-yl)-10-(1-(1-isopropylpiperidin-3-yl)-1H-pyrazol-5-yl)-5,6-dihydrobenzo[f]imidazo[1,2-d][1,4]oxazepine] | 25.8 | 0.44 |
| Cc1nc(-c2cn3c(n2)-c2ccc(OC4(CN5CCN(C)CC5)CC4)cc2OCC3)n(C(C)C)n1 [Example 259, 2-(1-isopropyl-3-methyl-1H-1,2,4-triazol-5-yl)-9-(1-((4-methylpiperazin-1-yl)methyl)cyclopropoxy)-5,6-dihydrobenzo[f]imidazo[1,2-d][1,4]oxazepine] | 26.1 | 3.31 |
| CC(C)n1ncnc1-c1cn2c(n1)-c1cnc(N3CCCC3C3CCN(C)CC3)cc1OCC2 (stereo not drawn) [Example 106, 2-(1-isopropyl-1H-1,2,4-triazol-5-yl)-9-(2-(1-methylpiperidin-4-yl)pyrrolidin-1-yl)-5,6-dihydroimidazo[1,2-d]pyrido[3,4-f][1,4]oxazepine] | 25.7 | 0.541 |
| Cc1nc(-c2cn3c(n2)-c2ccc(-c4ccnn4C4CCCN(C5(C)COC5)C4)cc2OCC3)n(C(C)C)n1 (stereo not drawn) [Example 285, 2-(2-isopropyl-5-methyl-1,2,4-triazol-3-yl)-9-[2-[1-(3-methyloxetan-3-yl)-3-piperidyl]pyrazol-3-yl]-5,6-dihydroimidazo[1,2-d][1,4]benzoxazepine] | 31.9 | 1.39 |
| Cc1nc(-c2cn3c(n2)-c2ccc(-c4ccnn4C4CCN(C(C)(C)C)CC4)cc2OCC3)n(C(C)C)n1 [Example 269, 9-[2-(1-tert-butyl-4-piperidyl)pyrazol-3-yl]-2-(2-isopropyl-5-methyl-1,2,4-triazol-3-yl)-5,6-dihydroimidazo[1,2-d][1,4]benzoxazepine] | 9.8 | 4.57 |
| Cc1nc(-c2cn3c(n2)-c2ccc(N4CCCC4C4CCCCN4C)cc2OCC3)n(C(C)C)n1 (stereo not drawn) [Example 324, 2-(2-isopropyl-5-methyl-1,2,4-triazol-3-yl)-9-[2-(1-methyl-2-piperidyl)pyrrolidin-1-yl]-5,6-dihydroimidazo[1,2-d][1,4]benzoxazepine] | 15 | 139 |
| Cc1nc(-c2cn3c(n2)-c2cc(C(C)N4CCN(C(C)(C)C)CC4)c(F)cc2OCC3)n(C(C)C)n1 (stereo not drawn) [Example 328, 10-[1-(4-tert-butylpiperazin-1-yl)ethyl]-9-fluoro-2-(2-isopropyl-5-methyl-1,2,4-triazol-3-yl)-5,6-dihydroimidazo[1,2-d][1,4]benzoxazepine] | 109 | 2.29 |
| Cc1nc(-c2cn3c(n2)-c2ccc(OC4CC(C)CN(C(C)C)C4)cc2OCC3)n(C(C)C)n1 (stereo not drawn) [Example 260, 2-(1-isopropyl-3-methyl-1H-1,2,4-triazol-5-yl)-9-(1-isopropyl-5-methylpiperidin-3-yloxy)-5,6-dihydrobenzo[f]imidazo[1,2-d][1,4]oxazepine] | 12.8 | 2.56 |

Continued, values first:

| IC50 p110 alpha/IC50 p110 delta [1] | IC50 [2] [nM] | Structure (SMILES) |
| --- | --- | --- |
| 20.2 | 0.313 | Cc1nc(-c2cn3c(n2)-c2ccc(N4CCC[C@H]4CN4CCCC4)cc2OCC3)n(C(C)C)n1 [Example 325, (S)-2-(1-isopropyl-3-methyl-1H-1,2,4-triazol-5-yl)-9-(2-(pyrrolidin-1-ylmethyl)pyrrolidin-1-yl)-5,6-dihydrobenzo[f]imidazo[1,2-d][1,4]oxazepine] |
| 71.1 | 0.771 | CCN(CC)C1CCOC(c2c(-c3ccc4c(c3)OCCn3cc(-c5nc(C)nn5C(C)C)nc3-4)cnn2C)C1 (stereo not drawn) [Example 341, N,N-diethyl-2-[4-[2-(2-isopropyl-5-methyl-1,2,4-triazol-3-yl)-5,6-dihydroimidazo[1,2-d][1,4]benzoxazepin-9-yl]-2-methyl-pyrazol-3-yl]tetrahydropyran-4-amine] |
| 23.6 | 0.972 | Cc1nc(-c2cn3c(n2)-c2ccc(-c4cn[nH]c4C4CCCN(C(C)C)C4)cc2OCC3)n(C(C)C)n1 (stereo not drawn) [Example 361, 2-(2-isopropyl-5-methyl-1,2,4-triazol-3-yl)-9-[5-(1-isopropyl-3-piperidyl)-1H-pyrazol-4-yl]-5,6-dihydroimidazo[1,2-d][1,4]benzoxazepine] |
| 21.3 | 0.16 | Cc1nc(-c2cn3c(n2)-c2ccc(N4CCC4[C@@H]4CCCN(C(C)C)C4)cc2OCC3)n(C(C)C)n1 (stereo partly drawn) [Example 342, 2-(1-isopropyl-3-methyl-1H-1,2,4-triazol-5-yl)-9-(2-((R)-1-isopropylpiperidin-3-yl)azetidin-1-yl)-5,6-dihydrobenzo[f]imidazo[1,2-d][1,4]oxazepine] |
| 24 | 0.311 | Cc1nc(-c2cn3c(n2)-c2ccc(-c4cn[nH]c4C4CCCN(C(C)C)C4)cc2OCC3)n(C(C)C)n1 (stereo not drawn) [Example 360, 2-(2-isopropyl-5-methyl-1,2,4-triazol-3-yl)-9-[5-(1-isopropyl-3-piperidyl)-1H-pyrazol-4-yl]-5,6-dihydroimidazo[1,2-d][1,4]benzoxazepine] |
| 172 | < 0.035 | Cc1nc(-c2cn3c(n2)-c2ccc(-c4cnn(C)c4C4CN(C(C)C)CCN4C)cc2OCC3)n(C(C)C)n1 (stereo not drawn) [Example 366, 9-[5-(4-isopropyl-1-methyl-piperazin-2-yl)-1-methyl-pyrazol-4-yl]-2-(2-isopropyl-5-methyl-1,2,4-triazol-3-yl)-5,6-dihydroimidazo[1,2-d][1,4]benzoxazepine] |
| 47.9 | 1.52 | Cc1nc(-c2cn3c(n2)-c2ccc(N4CCCC45CCCN(C(C)C)C5)cc2OCC3)n(C(C)C)n1 (stereo not drawn) [Example 337, 9-(7-isopropyl-1,7-diazaspiro[4.5]decan-1-yl)-2-(2-isopropyl-5-methyl-1,2,4-triazol-3-yl)-5,6-dihydroimidazo[1,2-d][1,4]benzoxazepine] |
| 47.5 | 5.53 | Cc1nc(-c2cn3c(n2)-c2cc([C@@H](C)N4CCN(C(C)(C)CO)CC4)c(F)cc2OCC3)n(C(C)C)n1 [Example 347, (R)-2-(4-(1-(9-fluoro-2-(1-isopropyl-3-methyl-1H-1,2,4-triazol-5-yl)-5,6-dihydrobenzo[f]imidazo[1,2-d][1,4]oxazepin-10-yl)ethyl)piperazin-1-yl)-2-methylpropan-1-ol] |
